Inconclusive results are not listed.
Target: Virion infectivity factor (Human immunodeficiency virus type 1 group M subtype B (isolate BH10)) + Virion infectivity factor (Human immunodeficiency virus type 1 group M subtype B (isolate BRU/LAI)) + Virion infectivity factor (Human immunodeficiency virus type 1 group M subtype B (isolate PCV12)) + Virion infectivity factor (Human immunodeficiency virus type 1 group M subtype B (isolate HXB2)) + DNA dC->dU-editing enzyme APOBEC-3G (Homo sapiens) (UniProt P69720+P69721+P69722+P69723+Q9HC16)
Assay: HIV-1 Vif–A3G interaction blockers – biochemical, TR-FRET, GST-Vif 1-94, biotin-A3G peptide, dose response retest, primary screen (AID 1117319);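 note: Vif residues 1-94 fused to GST binding biotinylated APOBEC3G peptide 110-148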
Conditions: TR-FRET GST-Vif / biotin-A3G peptide binding

| SMILES | IC50 |
| --- | --- |
| C=CCn1c(N2CCCCCC2)nc2c1c(=O)[nH]c(=O)n2C | 30.1 µM |
| COc1cc2c(cc1OC)C(C)N(C(=O)c1cc3n(n1)C(C(F)(F)F)CC(c1ccco1)N3)CC2 (configuration not stated) | 27.8 µM |
| O=C1NC(=Nc2ccc(O)cc2)S/C1=C\C=C\c1ccco1 | 5.1 µM |
| CN(CC(=O)Nc1ccc(F)cc1)C(=O)c1cc(-c2ccco2)nc2ccccc12 | 5.48 µM |
| COc1cc2c(cc1OC)C(=O)C(Br)CC2 (configuration not stated) | 1.48 µM |
| COC1=C(OC)C(=O)C(Sc2ccc3ccccc3c2)=CC1=O | 8.68 µM |
| CC1=CC(C)(C)N2C(=O)C(=Nc3ccc(O)cc3)c3cccc1c32 | 3.5 µM |
| CCN(CC(=O)Nc1c(F)cccc1F)C(=O)c1cccc(-n2cccc2)c1 | 20.9 µM |
| Cc1ccsc1C=Nc1ccc(O)cc1 | 17.1 µM |
| Cc1cc(C(=O)CN2C(=O)c3ccccc3S2(=O)=O)c(C)n1CC1CCCO1 (configuration not stated) | 51.2 µM |
| COC(=O)c1cnn2c(C(F)(F)F)cc(-c3ccco3)nc12 | 7.16 µM |
| CCn1c(COc2ccc3c(c2)OCO3)nnc1SCC(=O)c1ccc(Cl)cc1 | 78.1 µM |
| CC1=C(SCc2ccccc2)C(=O)c2ccccc2C1=O | 58.1 µM |
| CCOc1ccc(N(CC(=O)NC(C)(C)C)S(=O)(=O)c2c(C)noc2C)cc1 | 5.1 µM |
| O=C1NC(=S)NC1=Cc1ccco1 | 11.3 µM |
| O=C(CN1CCN(S(=O)(=O)c2ccc(F)cc2)CC1)c1ccc(O)c(O)c1 | 20.1 µM |
| COc1cc(NC(=O)c2cc3nc(C)cc(C)n3n2)c(OC)cc1Cl | 92.1 µM |
| Cc1ccc(-n2nc(-c3ccc(N)cc3)cc2N)cc1 | 33.5 µM |
| Cc1cc2ccccc2n1CCNC(=O)C1CCCCC1 | 37.2 µM |
| CCN(CC)C(=O)c1ccc2c(c1)C1C(Cl)C(Sc3ccccc3[N+](=O)[O-])CC1C(C(=O)O)N2 (configuration not stated) | 13 µM |
| CCN(CC)c1ccc2c(c1)CCCN2 | 1.17 µM |
| CNc1ccc(Br)cc(C(=O)/C=C/c2cc(OC)ccc2OC)c1=O | 3.6 µM |

| SMILES | IC50 |
| --- | --- |
| O=c1oc(/C=C/c2ccco2)nc2sc3c(c12)CCC3 | 15.5 µM |
| Cc1onc(-c2c(F)cccc2Cl)c1C(=O)Nc1nnc(C2CC2)s1 | 10.7 µM |
| O=C(O)C1Nc2c(O)cccc2C2C=CCC12 (configuration not stated) | 0.25 µM |
| CCc1ccccc1NC(=O)c1cccc(NC(=O)/C=C/c2ccco2)c1 | 10.8 µM |
| CC1=C(C#N)C(=O)N(C2CCS(=O)(=O)C2)C(=O)/C1=C\c1ccco1 (configuration not stated) | 0.62 µM |
| CC(=O)NCc1c(Cl)cccc1-n1cccc1 | 72.7 µM |
| O=C(Nc1ccccc1)C1=C(O)CC(c2ccco2)CC1=Nc1ccccc1 (configuration not stated) | 15.1 µM |
| CC1=CN2C(=N)/C(=C/c3ccc([N+](=O)[O-])o3)C(=O)N=C2S1 | 2.91 µM |
| CCC(c1ccc(O)c(O)c1)C(CC)c1ccc(O)c(O)c1 (configuration not stated) | 6.46 µM |
| Cc1ccc(SCCN2C(=O)NC(C)(C)C2=O)cc1 | 7.32 µM |
| Cc1ccc(-n2nc(C)c(C3C(C#N)=C(N)Oc4c3c(=O)oc3ccccc43)c2Cl)cc1 (configuration not stated) | 11.1 µM |
| O=C(O)C1Nc2c(O)cc(Cl)c([N+](=O)[O-])c2C2C=CCC12 (configuration not stated) | 0.23 µM |
| O=C(O)COc1ccc2c(c1)O/C(=C\c1ccco1)C2=O | 22.5 µM |
| COC(=O)c1ccc(C(=O)OC)c(NC(=O)Cc2cccs2)c1 | 4.22 µM |
| O=C(NCCO)c1ccc2nc(-c3ccco3)c(-c3ccco3)nc2c1 | 0.88 µM |
| Oc1ccc(NCc2ccccc2OCc2ccccc2)cc1 | 3.97 µM |
| Nc1ccc(N(CCO)CCO)cc1 | 2.17 µM |
| COC(=O)CCCC(=O)Nc1c(F)c(F)c(F)c(F)c1F | 24.3 µM |
| COc1nc(N(c2ccccc2)c2ccccc2)nc(-n2ccnc2)n1 | 26.3 µM |
| CCN1CCN(C2=NC(=O)/C(=C/c3ccc(C)o3)S2)CC1 | 3.48 µM |
| CC(/C=C/c1ccco1)=N\NC(=O)c1cccnc1 | 20.3 µM |
| O=C(c1coc(=O)c(Br)c1)N1CCCc2ccccc21 | 24.3 µM |

| SMILES | IC50 |
| --- | --- |
| O=C(CSc1nnc(-c2ccco2)c(-c2ccco2)n1)Nc1ccccc1 | 3.12 µM |
| Fc1cccc(-c2cc3nc4c(c(NCc5ccco5)n3n2)CCCC4)c1 | 50.8 µM |
| C=CCN1C(=O)/C(=C\c2ccco2)C(C(=O)OC)=C1C | 14.1 µM |
| O=c1cc(-c2ccc(O)cc2)oc2c(O)c(O)c(O)c(O)c12 | 22.1 µM |
| Oc1ccc(NCc2cccc(OCc3ccccc3)c2)cc1 | 2.14 µM |
| O=C(NN1C(=O)/C(=C/C=C/c2ccco2)SC1=S)c1ccccc1O | 1.93 µM |
| O=[N+]([O-])c1ccccc1NC(=S)N/N=C/c1ccc(O)c(O)c1 | 4.06 µM |
| CS(=O)(=O)c1ccc(C(=O)Nc2nc(-c3ccco3)c(-c3ccco3)s2)cc1 | 22.1 µM |
| Cc1cc(C(C)c2ccccc2)c(O)c(CN2CCOCC2)c1C (configuration not stated) | 28.8 µM |
| O=C(O)C1Nc2c(Cl)cc(Cl)c(Cl)c2C2C=CCC12 (configuration not stated) | 30 µM |
| COc1ccc(N2CCN(C(=O)c3c(-c4ccccc4)noc3C)CC2)cc1 | 31.1 µM |
| O=C(O)C1Nc2c(C(=O)N3CCOCC3)cccc2C2C=CCC12 (configuration not stated) | 2.02 µM |
| Cc1ccc(Cn2c(=S)[nH]c3ccc(N4CCOCC4)cc3c2=O)o1 | 0.61 µM |
| O=C1CC=C2C3CC4N(CCC45c4cc(O)c(O)cc4N1C25)CC3=CCBr (configuration not stated) | 0.7 µM |
| COc1ccc2nc3ccccc3nc2c1N | 6 µM |
| CCn1c(SC(C)C(=O)O)nc2sc3c(c2c1=O)CCC3 (configuration not stated) | 8.89 µM |
| CCN(CC)Cc1cc(Nc2c3ccccc3nc3c4ccccc4n(C)c23)cc(CN(CC)CC)c1O | 10.9 µM |
| N#Cc1c(N)sc(=S)c2c1CCCCC2 | 4.22 µM |
| CCCCn1cnc2cc(NCc3ccncc3)ccc21 | 35.3 µM |
| Cc1cccc(C)c1NC(=O)c1ccc(-n2cnnn2)cc1 | 35.8 µM |
| Cc1ccc(-c2c3c([nH]c(=S)c2C#N)CCCC3)o1 | 13.9 µM |
| O=C(O)c1cc(Nc2cc(Cl)c3nonc3c2[N+](=O)[O-])ccc1O | 57.6 µM |

| SMILES | IC50 |
| --- | --- |
| O=C(c1cc2n(n1)C(C(F)(F)F)CC(c1ccco1)N2)N1CCc2ccccc2C1 (configuration not stated) | 33.2 µM |
| CC(=O)Nc1ccc(S(=O)(=O)NCCSCc2ccco2)cc1 | 15.3 µM |
| CCC(=O)NC1=C(Cl)C(=O)C(NC(=O)CC)=C(Cl)C1=O | 22.9 µM |
| CC1C/C(=C/c2ccco2)C(=O)/C(=C/c2ccco2)C1 (configuration not stated) | 1.89 µM |
| COc1ccc(NC(=S)NCCc2ccccc2OC)c(OC)c1 | 7.02 µM |
| COc1ccc(C2CC(=O)Nc3cc(C)c(C)cc32)c(OC)c1OC (configuration not stated) | 63.5 µM |
| O=C(C1CCCN1S(=O)(=O)c1cccc2cccnc12)N1CCN(c2ccccc2)CC1 (configuration not stated) | 40.2 µM |
| O=C(NN(C(=O)c1ccccc1)c1ccccc1)c1ccccc1 | 70.7 µM |
| COCCNC(=O)Nc1ccc2nc(-c3ccco3)c(-c3ccco3)nc2c1 | 0.25 µM |
| Nc1ccc2c(O)cc(S(=O)(=O)O)cc2c1 | 9.44 µM |
| CCC(C(=O)OCC(=O)Nc1ccc(SC(F)F)cc1)c1ccccc1 (configuration not stated) | 83.2 µM |
| CC(C)CC(NC(=O)/C(=C/c1ccco1)NC(=O)c1ccc(Br)o1)C(=O)O (configuration not stated) | 93.5 µM |
| CCOC(=O)C1CCCC12Nc1cccc3cccc(c13)N2 (configuration not stated) | 3.74 µM |
| O=C(COc1ccc(Cl)cc1)N1CCN(S(=O)(=O)c2ccc(Cl)cc2)CC1 | 50.7 µM |
| COc1cccc(-c2cn3nc4c(nc3n2)CCCC4)c1 | 17.6 µM |
| COc1ccc(NC(=O)/C(C#N)=C\c2ccc(Br)o2)cc1 | 6.29 µM |
| CCNC(=O)COC(=O)c1cc(-c2ccco2)nc2ccccc12 | 3.93 µM |
| O=C(c1ccccc1Br)N1CCN(c2ccccc2)CC1 | 38.7 µM |
| O=C(O)CCC(=O)N(Cc1cccs1)Cc1cccs1 | 79.6 µM |
| CN1C(=O)/C(=C/c2ccco2)SC1=Nc1cccc(C(=O)O)c1 | 19 µM |
| O=C(/C=C/Nc1ccccc1Br)c1ccccn1 | 41.5 µM |
